Reference: the supplement of paper PMC10307832

What was measured:
Test in all cases: relative viability (nuclei count vs DMSO), 5 days (fraction); higher = more cells survive
[1] = compound: CC(C)(C)c1cc(NC(=O)Nc2ccc(-c3cn4c(n3)sc3cc(OCCN5CCOCC5)ccc34)cc2)no1 [Quizartinib] + CC(=O)c1c(C)c2cnc(Nc3ccc(N4CCNCC4)cn3)nc2n(C2CCCC2)c1=O [Palbociclib] (partner 0.5 µM)
Method in brief: (§1)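 After 5 days of treatment, lung cancer cells in 1536-well plates were fixed and stained in a single step (final 0.05% Triton X-100, 1% formaldehyde, 1 ug/ml Hoechst) and their nuclei counted on 4× images. Treatment had been applied by pin tool the day after seeding as one drug alone or as a fixed anchor-drug dose with five library-drug doses (not always all listed) in √10 steps. Relative viability is the nuclei count of treated wells divided by that of vehicle wells, and values are medians of duplicate plates.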

[2] = compound: CC(C)(C)c1cc(NC(=O)Nc2ccc(-c3cn4c(n3)sc3cc(OCCN5CCOCC5)ccc34)cc2)no1 [Quizartinib] + COc1cccc2cc(-c3nc([C@H]4CC[C@H](C(=O)O)CC4)n4ncnc(N)c34)[nH]c12 [OSI-027] (partner 0.5 µM)
Method in brief: as §1

[3] = compound: CC(C)(C)c1cc(NC(=O)Nc2ccc(-c3cn4c(n3)sc3cc(OCCN5CCOCC5)ccc34)cc2)no1 [Quizartinib] + NC(=O)Nc1cc(-c2cccc(F)c2)sc1C(=O)N[C@H]1CCCNC1 [AZD7762] (partner 0.2 µM)
Method in brief: as §1

[4] = compound: COCC[n+]1c2c(n(Cc3cnccn3)c1C)C(=O)c1ccccc1C2=O [YM155] + CC(=O)Nc1cccc(-n2c(=O)n(C3CC3)c(=O)c3c(Nc4ccc(I)cc4F)n(C)c(=O)c(C)c32)c1 [Trametinib] (partner 0.02 µM)
Method in brief: as §1

[5] = compound: COCC[n+]1c2c(n(Cc3cnccn3)c1C)C(=O)c1ccccc1C2=O [YM155] + CC(=O)c1c(C)c2cnc(Nc3ccc(N4CCNCC4)cn3)nc2n(C2CCCC2)c1=O [Palbociclib] (partner 0.5 µM)
Method in brief: as §1

[6] = compound: COCC[n+]1c2c(n(Cc3cnccn3)c1C)C(=O)c1ccccc1C2=O [YM155] + Cc1cc(Nc2cc(N3CCN(C)CC3)nc(Sc3ccc(NC(=O)C4CC4)cc3)n2)n[nH]1 [Tozasertib] (partner 0.1 µM)
Method in brief: as §1

**Q.** How did the relative viability ([1]; first compound 0.003162 µM) turn out when NCI-H1648 was run?
**A.** 0.118

**Q.** And the relative viability ([1]; first compound 0.03162 µM)?
**A.** 0.277

**Q.** What about the relative viability ([1]; first compound 0.1 µM) of the same cell line?
**A.** 0.239

**Q.** What about the relative viability ([2]; first compound 0.01 µM) of the same cell line?
**A.** 0.258

**Q.** What about the relative viability ([2]; first compound 0.03162 µM) of the same cell line?
**A.** 0.253

**Q.** What about the relative viability ([2]; first compound 0.1 µM) of the same cell line?
**A.** 0.259

**Q.** What about the relative viability ([3]; first compound 0.003162 µM) of the same cell line?
**A.** 0.612

**Q.** What about the relative viability ([3]; first compound 0.03162 µM) of the same cell line?
**A.** 0.629

**Q.** And the relative viability ([3]; first compound 0.1 µM)?
**A.** 0.821

**Q.** And the relative viability ([4]; first compound 0.006325 µM)?
**A.** 0.902

**Q.** And the relative viability ([4]; first compound 0.02 µM)?
**A.** 0.444

**Q.** And the relative viability ([4]; first compound 0.06325 µM)?
**A.** 0.651

**Q.** What about the relative viability ([5]; first compound 0.006325 µM) of the same cell line?
**A.** 0.299

**Q.** And the relative viability ([5]; first compound 0.02 µM)?
**A.** 0.306

**Q.** What about the relative viability ([5]; first compound 0.06325 µM) of the same cell line?
**A.** 0.295

**Q.** And the relative viability ([6]; first compound 0.002 µM)?
**A.** 0.386

**Q.** And the relative viability ([6]; first compound 0.006325 µM)?
**A.** 0.605

**Q.** What about the relative viability ([6]; first compound 0.02 µM) of the same cell line?
**A.** 0.586

**Q.** And the relative viability ([6]; first compound 0.06325 µM)?
**A.** 0.427
